This note sets out measurements from patent publication US9029391B2 (priority 2011, dated 2015).

This test concerns HIV. Put plainly: MT4 Assay (anti-HIV activity). It is filed as cell-based. As to conditions: Human immunodeficiency virus 1, 96 h, read-out: HIV MT4 Assay IC50, HTLV-1 transformed cell line MT-4, cell titer glo, 10 point dose response curve. An outline of the steps: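 MT-4 cells (HTLV-1 transformed) were used for antiviral activity and cytotoxicity, run in parallel, with luminescence read by CellTiter-Glo 96 hours later. Percent inhibition was expressed against the no-compound control. IC50s came from 10-point curves of 3-4-fold serial dilutions spanning >1000-fold.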

For the compound `Cn1c(C(OC(C)(C)C)C(=O)O)c(-c2ccc3c(c2)CCCO3)c2ccc(Cl)cc2c1=O` (stereo not drawn) [Example 68, 2-(tert-butoxy)-2-[7-chloro-4-(3,4-dihydro-2H-1-benzopyran-6-yl)-2-methyl-1-oxo-1,2-dihydroisoquinolin-3-yl]acetic acid], the IC50 (as a rule, the midpoint of a concentration-inhibition curve) came to 2450 nM.
For the compound `COc1ccc2c(-c3ccc4c(c3C)CCCO4)c([C@H](OC(C)(C)C)C(=O)O)n(C)c(=O)c2c1` [Example 94, (2S)-2-(tert-butoxy)-2-[7-methoxy-2-methyl-4-(5-methyl-3,4-dihydro-2H-1-benzopyran-6-yl)-1-oxo-1,2-dihydroisoquinolin-3-yl]acetic acid], the IC50 came to 20 nM.
As to `Cc1c(-c2c([C@H](OC(C)(C)C)C(=O)O)n(C)c(=O)c3cc(OCc4ccc(F)cc4)ccc23)ccc2c1CCCO2` [Example 147, (2S)-2-(tert-butoxy)-2-{7-[(4-fluorophenyl)methoxy]-2-methyl-4-(5-methyl-3,4-dihydro-2H-1-benzopyran-6-yl)-1-oxo-1,2-dihydroisoquinolin-3-yl}acetic acid], the half-maximal inhibitory concentration (IC50) is 20 nM.
The same measure for `Cc1c(-c2c([C@H](OC(C)(C)C)C(=O)O)n(C)c(=O)c3cc(-c4cnn(CCC(C)C)c4)ccc23)cc(F)c2c1CCCO2` (atropisomer, axis not shown; (M)) [Example 201, (2S)(M)-[(1,1-dimethylethyl)oxy]{4-(8-fluoro-5-methyl-3,4-dihydro-2H-chromen-6-yl)-2-methyl-7-[1-(3-methylbutyl)-1H-pyrazol-4-yl]-1-oxo-1,2-dihydro-3-isoquinolinyl}ethanoic acid]: 40 nM.
For the compound `Cn1c(C(OC(C)(C)C)C(=O)O)c(-c2cccc(C(F)(F)F)c2)c2ccccc2c1=O` (stereo not drawn) [Example 13, 2-(tert-butoxy)-2-{2-methyl-1-oxo-4-[3-(trifluoromethyl)phenyl]-1,2-dihydroisoquinolin-3-yl}acetic acid], the half-inhibitory concentration (IC50) turned out to be 23800 nM.
For `Cc1c(-c2c(C(OC(C)(C)C)C(=O)O)n(C)c(=O)c3cc(OCc4cc(F)ccc4F)ccc23)ccc2c1CCCO2` (stereo not drawn) [Example 95, 2-(tert-butoxy)-2-{7-[(2,5-difluorophenyl)methoxy]-2-methyl-4-(5-methyl-3,4-dihydro-2H-1-benzopyran-6-yl)-1-oxo-1,2-dihydroisoquinolin-3-yl}acetic acid], the IC50 stood at 90 nM.
Consider `Cc1c(-c2c([C@H](OC(C)(C)C)C(=O)O)n(C)c(=O)c3cc(CCc4ccccc4)ccc23)cc(F)c2c1CCCO2` (atropisomer, axis not shown; (M)) [Example 176, (2S)(M)-[(1,1-dimethylethyl)oxy][4-(8-fluoro-5-methyl-3,4-dihydro-2H-chromen-6-yl)-2-methyl-1-oxo-7-(2-phenylethyl)-1,2-dihydro-3-isoquinolinyl]ethanoic acid], for which the concentration for half-maximal inhibition (IC50) stood at 50 nM.
For the compound `CCCOc1ccc(-c2c(C(OC(C)(C)C)C(=O)O)n(C)c(=O)c3ccccc23)cc1` (stereo not drawn) [Example 44, 2-(tert-butoxy)-2-[2-methyl-1-oxo-4-(4-propoxyphenyl)-1,2-dihydroisoquinolin-3-yl]acetic acid], the half-maximal inhibitory concentration (IC50) was 38900 nM.
Consider `Cc1c(-c2c([C@H](OC(C)(C)C)C(=O)O)n(C)c(=O)c3cc(OCc4ccc(Cl)s4)ccc23)ccc2c1CCCO2` [Example 112, (2S)-2-(tert-butoxy)-2-{7-[(5-chlorothiophen-2-yl)methoxy]-2-methyl-4-(5-methyl-3,4-dihydro-2H-1-benzopyran-6-yl)-1-oxo-1,2-dihydroisoquinolin-3-yl}acetic acid], for which the IC50 was 50 nM.
`Cc1c(-c2c(C(OC(C)(C)C)C(=O)O)n(C)c(=O)c3cc(OCc4cncnc4)ccc23)ccc2c1CCCO2` (stereo not drawn) [Example 137, 2-(tert-butoxy)-2-[2-methyl-4-(5-methyl-3,4-dihydro-2H-1-benzopyran-6-yl)-1-oxo-7-(pyrimidin-5-ylmethoxy)-1,2-dihydroisoquinolin-3-yl]acetic acid]: the half-inhibitory concentration (IC50) amounted to 1030 nM.
With `Cc1c(-c2c([C@H](OC(C)(C)C)C(=O)O)n(C)c(=O)c3cc(C(=O)N4CCOCC4)ccc23)cc(F)c2c1CCCO2` (atropisomer, axis not shown; (M)) [Example 169, (S)(M)-2-(tert-butoxy)-2-(4-(8-fluoro-5-methylchroman-6-yl)-2-methyl-7-(morpholine-4-carbonyl)-1-oxo-1,2-dihydroisoquinolin-3-yl)acetic acid], the IC50 came out at 22500 nM.
To `Cc1cc(C)cc(-c2c(C(OC(C)(C)C)C(=O)O)n(C)c(=O)c3ccccc23)c1` (stereo not drawn) [Example 10, 2-(tert-butoxy)-2-[4-(3,5-dimethylphenyl)-2-methyl-1-oxo-1,2-dihydroisoquinolin-3-yl]acetic acid] belongs 10500 nM; to `Cn1c(C(OC(C)(C)C)C(=O)O)c(-c2ccc3c(c2Cl)NCCO3)c2ccccc2c1=O` (stereo not drawn) [Example 86, 2-(tert-butoxy)-2-[4-(5-chloro-3,4-dihydro-2H-1,4-benzoxazin-6-yl)-2-methyl-1-oxo-1,2-dihydroisoquinolin-3-yl]acetic acid], 4380 nM; to `Cn1c(C(OC(C)(C)C)C(=O)O)c(-c2ccc3c(c2)OCO3)c2ccccc2c1=O` (stereo not drawn) [Example 51, 2-[4-(2H-1,3-benzodioxol-5-yl)-2-methyl-1-oxo-1,2-dihydroisoquinolin-3-yl]-2-(tert-butoxy)acetic acid], 5300 nM.
`Cc1c(-c2c(C(OC(C)(C)C)C(=O)O)n(C)c(=O)c3cc(F)ccc23)ccc2c1CCCO2` (stereo not drawn) [Example 75, 2-(tert-butoxy)-2-[7-fluoro-2-methyl-4-(5-methyl-3,4-dihydro-2H-1-benzopyran-6-yl)-1-oxo-1,2-dihydroisoquinolin-3-yl]acetic acid]: the IC50 stood at 390 nM.
On to `Cc1cccnc1COc1ccc2c(-c3ccc4c(c3C)CCCO4)c(C(OC(C)(C)C)C(=O)O)n(C)c(=O)c2c1` (stereo not drawn) [Example 102, 2-(tert-butoxy)-2-[2-methyl-4-(5-methyl-3,4-dihydro-2H-1-benzopyran-6-yl)-7-[(3-methylpyridin-2-yl)methoxy]-1-oxo-1,2-dihydroisoquinolin-3-yl]acetic acid], for which the concentration for half-maximal inhibition (IC50) stood at 330 nM.
To `COc1cc(-c2c(C(OC(C)(C)C)C(=O)O)n(C)c(=O)c3ccccc23)cc(OC)c1OC` (stereo not drawn) [Example 27, 2-(tert-butoxy)-2-[2-methyl-1-oxo-4-(3,4,5-trimethoxyphenyl)-1,2-dihydroisoquinolin-3-yl]acetic acid] belongs 50000 nM.
Turning to `COc1ccc2c(-c3cc(F)c4c(c3C)CCCO4)c([C@H](OC(C)(C)C)C(=O)O)n(C)c(=O)c2c1` [Example 106, (2S)-2-(tert-butoxy)-2-[4-(8-fluoro-5-methyl-3,4-dihydro-2H-1-benzopyran-6-yl)-7-methoxy-2-methyl-1-oxo-1,2-dihydroisoquinolin-3-yl]acetic acid], the IC50 was 40 nM.
Regarding `CC(C)Oc1ccc(-c2c(C(OC(C)(C)C)C(=O)O)n(C)c(=O)c3ccccc23)cc1` (stereo not drawn) [Example 45, 2-(tert-butoxy)-2-{2-methyl-1-oxo-4-[4-(propan-2-yloxy)phenyl]-1,2-dihydroisoquinolin-3-yl}acetic acid], the half-inhibitory concentration (IC50) was determined as 50000 nM.
On to `Cn1c(C(OC(C)(C)C)C(=O)O)c(-c2cccc(F)c2)c2ccccc2c1=O` (stereo not drawn) [Example 40, 2-(tert-butoxy)-2-[4-(3-fluorophenyl)-2-methyl-1-oxo-1,2-dihydroisoquinolin-3-yl]acetic acid], for which the IC50 turned out to be 2180 nM.
As for `Cc1c(-c2c([C@H](OC(C)(C)C)C(=O)O)n(C)c(=O)c3cc(-c4cnn(C)c4)ccc23)cc(F)c2c1CCCO2` (atropisomer, axis not shown; (M)) [Example 200, (2S)(M)-[(1,1-dimethylethyl)oxy][4-(8-fluoro-5-methyl-3,4-dihydro-2H-chromen-6-yl)-2-methyl-7-(1-methyl-1H-pyrazol-4-yl)-1-oxo-1,2-dihydro-3-isoquinolinyl]ethanoic acid], the half-inhibitory concentration (IC50) came to 110 nM.
Regarding `Cc1cc2c(cc1-c1c(C(OC(C)(C)C)C(=O)O)n(C)c(=O)c3ccccc13)CCCO2` (stereo not drawn) [Example 20, 2-(tert-butoxy)-2-[2-methyl-4-(7-methyl-3,4-dihydro-2H-1-benzopyran-6-yl)-1-oxo-1,2-dihydroisoquinolin-3-yl]acetic acid], the half-inhibitory concentration (IC50) came to 3790 nM.
In the case of `Cc1c(-c2c([C@H](OC(C)(C)C)C(=O)O)n(C)c(=O)c3cc(CC(C)C)ccc23)cc(F)c2c1CCCO2` (atropisomer, axis not shown; (M)) [Example 174, (2S)(M)-[(1,1-dimethylethyl)oxy][4-(8-fluoro-5-methyl-3,4-dihydro-2H-chromen-6-yl)-2-methyl-7-(2-methylpropyl)-1-oxo-1,2-dihydro-3-isoquinolinyl]ethanoic acid], the IC50 is 50 nM.
In the case of `Cc1c(-c2c(C(OC(C)(C)C)C(=O)O)n(C)c(=O)c3cc(O)ccc23)ccc2c1CCCO2` (stereo not drawn) [Example 84, 2-(tert-butoxy)-2-[7-hydroxy-2-methyl-4-(5-methyl-3,4-dihydro-2H-1-benzopyran-6-yl)-1-oxo-1,2-dihydroisoquinolin-3-yl]acetic acid], the IC50 came to 26000 nM.
`Cn1c(C(OC(C)(C)C)C(=O)O)c(-c2ccc3c(c2)CCCO3)c2ccccc2c1=O` (stereo not drawn) [Example 39, 2-(tert-butoxy)-2-[4-(3,4-dihydro-2H-1-benzopyran-6-yl)-2-methyl-1-oxo-1,2-dihydroisoquinolin-3-yl]acetic acid]: the IC50 came out at 1880 nM.
As for `Cc1c(-c2c(C(OC(C)(C)C)C(=O)O)n(C)c(=O)c3cc(OCCN4CCCC4)ccc23)ccc2c1CCCO2` (stereo not drawn) [Example 117, 2-(tert-butoxy)-2-[2-methyl-4-(5-methyl-3,4-dihydro-2H-1-benzopyran-6-yl)-1-oxo-7-[2-(pyrrolidin-1-yl)ethoxy]-1,2-dihydroisoquinolin-3-yl]acetic acid], the IC50 came out at 4090 nM.
As for `Cn1c(C(OC(C)(C)C)C(=O)O)c(-c2ccc3c(c2)CCCO3)c2cccc(F)c2c1=O` (stereo not drawn) [Example 35, 2-(tert-butoxy)-2-[4-(3,4-dihydro-2H-1-benzopyran-6-yl)-8-fluoro-2-methyl-1-oxo-1,2-dihydroisoquinolin-3-yl]acetic acid], the half-maximal inhibitory concentration (IC50) was 1890 nM.
